Legend:
Type in all cases: cell-based
[1] = test system: Enterococcus faecalis (EFA); test: MIC, two-fold agar dilution (CLSI), clinical isolates
Outline: (§1)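 Susceptibility was tested using CLSI two-fold agar dilution against the strains examined.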

[2] = test system: Enterococcus faecium (EFM); test: as above
Outline: as §1

[3] = test system: Escherichia coli (including ESBLs, non-ESBLs); test: as above
Outline: as §1

[4] = test system: Moraxella catarrhalis (BCA); test: as above
Outline: as §1

[5] = test system: Streptococcus pneoumoniae (SPN); test: as above
Outline: as §1

[6] = test system: methicillin-resistant Staphylococcus aureus (MRSA); test: as above
Outline: as §1

[7] = test system: methicillin-resistant Staphylococcus epidermidis (MRSE); test: as above
Outline: as §1

[8] = test system: methicillin-sensitive Staphylococcus aureus (MSSA); test: as above
Outline: as §1

[9] = test system: methicillin-sensitive Staphylococcus epidermidis (MSSE); test: as above
Outline: as §1

[10] = test system: HCT-116 colorectal cancer cell line; test: CCK-8 proliferation inhibition; details: Homo sapiens, HCT-116, 72 h, concentration of 30 μM; 72 hours; CCK-8; read-out: HCT116 inhibition rate/%
Outline: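 Cells were plated overnight at 2000 cells/well, then compound in culture medium was added at a range of final concentrations. After 72 hours in a CO2 incubator, medium was replaced with 1:10 CCK-8 solution for the read-out.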

**Q.** CCCC[C@H](CC(=O)NO)C(=O)N1CC2(CC2)C[C@@H]1c1nc2ccccc2[nH]1 [Example 59, (R)-3-((R)-6-(1H-benzimidazol-2-yl)-5-azaspiro[2.4]heptane-5-carbonyl)-N-hydroxyheptanamide] was tested. Which Anti-bacterial activity (MIC), strain EFA 15-1 ([1]; clinical isolate EFA 15-1) did it give?
**A.** > 32 mg/L

**Q.** And the Anti-bacterial activity (MIC), strain EFA 15-2 ([1]; clinical isolate EFA 15-2)?
**A.** > 32 mg/L

**Q.** And the Anti-bacterial activity (MIC), strain EFA 15-3 ([1]; clinical isolate EFA 15-3)?
**A.** > 32 mg/L

**Q.** And the Anti-bacterial activity (MIC), strain EFA 15-4 ([1]; clinical isolate EFA 15-4)?
**A.** > 32 mg/L

**Q.** What about the Anti-bacterial activity (MIC), strain EFA 15-5 ([1]; clinical isolate EFA 15-5) of the same molecule?
**A.** > 32 mg/L

**Q.** What about the Anti-bacterial activity (MIC), strain EFA 15-6 ([1]; clinical isolate EFA 15-6) of the same molecule?
**A.** > 32 mg/L

**Q.** And the Anti-bacterial activity (MIC), strain EFA 15-9 ([1]; clinical isolate EFA 15-9)?
**A.** > 32 mg/L

**Q.** And the Anti-bacterial activity (MIC), strain EFM 15-1 ([2]; clinical isolate EFM 15-1)?
**A.** > 32 mg/L

**Q.** And the Anti-bacterial activity (MIC), strain EFM 15-2 ([2]; clinical isolate EFM 15-2)?
**A.** > 32 mg/L

**Q.** What about the Anti-bacterial activity (MIC), strain EFM 15-3 ([2]; clinical isolate EFM 15-3) of the same molecule?
**A.** > 32 mg/L

**Q.** And the Anti-bacterial activity (MIC), strain EFM 15-4 ([2]; clinical isolate EFM 15-4)?
**A.** > 32 mg/L

**Q.** And the Anti-bacterial activity (MIC), strain EFM 15-5 ([2]; clinical isolate EFM 15-5)?
**A.** 16 mg/L

**Q.** What about the Anti-bacterial activity (MIC), strain EFM 15-6 ([2]; clinical isolate EFM 15-6) of the same molecule?
**A.** 16 mg/L

**Q.** And the Anti-bacterial activity (MIC), strain ECO+ 15-1 ([3]; clinical isolate ECO+ 15-1)?
**A.** > 32 mg/L

**Q.** What about the Anti-bacterial activity (MIC), strain ECO+ 15-2 ([3]; clinical isolate ECO+ 15-2) of the same molecule?
**A.** > 32 mg/L

**Q.** What about the Anti-bacterial activity (MIC), strain ECO+ 15-3 ([3]; clinical isolate ECO+ 15-3) of the same molecule?
**A.** > 32 mg/L

**Q.** And the Anti-bacterial activity (MIC), strain ECO+ 15-4 ([3]; clinical isolate ECO+ 15-4)?
**A.** > 32 mg/L

**Q.** What about the Anti-bacterial activity (MIC), strain ECO− 15-1 ([3]; clinical isolate ECO− 15-1) of the same molecule?
**A.** > 32 mg/L

**Q.** What about the Anti-bacterial activity (MIC), strain ECO− 15-2 ([3]; clinical isolate ECO− 15-2) of the same molecule?
**A.** > 32 mg/L

**Q.** What about the Anti-bacterial activity (MIC), strain ECO− 15-3 ([3]; clinical isolate ECO− 15-3) of the same molecule?
**A.** > 32 mg/L

**Q.** And the Anti-bacterial activity (MIC), strain ECO− 15-4 ([3]; clinical isolate ECO− 15-4)?
**A.** > 32 mg/L

**Q.** What about the Anti-bacterial activity (MIC), strain BCA 14-1 ([4]; clinical isolate BCA 14-1) of the same molecule?
**A.** > 32 mg/L

**Q.** What about the Anti-bacterial activity (MIC), strain BCA 14-4 ([4]; clinical isolate BCA 14-4) of the same molecule?
**A.** > 32 mg/L

**Q.** And the Anti-bacterial activity (MIC), strain BCA 14-5 ([4]; clinical isolate BCA 14-5)?
**A.** 16 mg/L

**Q.** What about the Anti-bacterial activity (MIC), strain BCA 14-6 ([4]; clinical isolate BCA 14-6) of the same molecule?
**A.** > 32 mg/L

**Q.** What about the Anti-bacterial activity (MIC), strain BCA 14-7 ([4]; clinical isolate BCA 14-7) of the same molecule?
**A.** > 32 mg/L

**Q.** And the Anti-bacterial activity (MIC), strain BCA 14-8 ([4]; clinical isolate BCA 14-8)?
**A.** > 32 mg/L

**Q.** And the Anti-bacterial activity (MIC), strain BCA 14-10 ([4]; clinical isolate BCA 14-10)?
**A.** > 32 mg/L

**Q.** And the Anti-bacterial activity (MIC), strain SPN 16-2 ([5]; clinical isolate SPN 16-2)?
**A.** 8 mg/L

**Q.** What about the Anti-bacterial activity (MIC), strain SPN 16-4 ([5]; clinical isolate SPN 16-4) of the same molecule?
**A.** 8 mg/L

**Q.** And the Anti-bacterial activity (MIC), strain MRSA 15-1 ([6]; clinical isolate MRSA 15-1)?
**A.** > 32 mg/L

**Q.** And the Anti-bacterial activity (MIC), strain MRSA 15-2 ([6]; clinical isolate MRSA 15-2)?
**A.** > 32 mg/L

**Q.** And the Anti-bacterial activity (MIC), strain MRSA 15-3 ([6]; clinical isolate MRSA 15-3)?
**A.** > 32 mg/L

**Q.** What about the Anti-bacterial activity (MIC), strain MRSA 15-4 ([6]; clinical isolate MRSA 15-4) of the same molecule?
**A.** > 32 mg/L

**Q.** And the Anti-bacterial activity (MIC), strain MRSE 15-1 ([7]; clinical isolate MRSE 15-1)?
**A.** > 32 mg/L

**Q.** What about the Anti-bacterial activity (MIC), strain MRSE 15-2 ([7]; clinical isolate MRSE 15-2) of the same molecule?
**A.** > 32 mg/L

**Q.** And the Anti-bacterial activity (MIC), strain MRSE 15-3 ([7]; clinical isolate MRSE 15-3)?
**A.** > 32 mg/L

**Q.** What about the Anti-bacterial activity (MIC), strain MRSE 15-7 ([7]; clinical isolate MRSE 15-7) of the same molecule?
**A.** > 32 mg/L

**Q.** What about the Anti-bacterial activity (MIC), strain MSSA 15-3 ([8]; clinical isolate MSSA 15-3) of the same molecule?
**A.** > 32 mg/L

**Q.** What about the Anti-bacterial activity (MIC), strain MSSA 15-4 ([8]; clinical isolate MSSA 15-4) of the same molecule?
**A.** > 32 mg/L

**Q.** And the Anti-bacterial activity (MIC), strain MSSA 15-5 ([8]; clinical isolate MSSA 15-5)?
**A.** > 32 mg/L

**Q.** And the Anti-bacterial activity (MIC), strain MSSA 15-6 ([8]; clinical isolate MSSA 15-6)?
**A.** > 32 mg/L

**Q.** What about the Anti-bacterial activity (MIC), strain MSSE 15-3 ([9]; clinical isolate MSSE 15-3) of the same molecule?
**A.** > 32 mg/L

**Q.** What about the Anti-bacterial activity (MIC), strain MSSE 15-4 ([9]; clinical isolate MSSE 15-4) of the same molecule?
**A.** > 32 mg/L

**Q.** And the Anti-bacterial activity (MIC), strain MSSE 15-5 ([9]; clinical isolate MSSE 15-5)?
**A.** > 32 mg/L

**Q.** And the Anti-bacterial activity (MIC), strain MSSE 15-6 ([9]; clinical isolate MSSE 15-6)?
**A.** > 32 mg/L

**Q.** And the inhibition at 30 µM [10]?
**A.** 12%

Reference: US10738028B2, “Spiro three-membered ring, spiro five-membered ring peptide deformylase inhibitor and use thereof in antibacteria and anti-tumor” (priority 2016, dated 2020)
